Laboratory results reported in article PMC11040352, “CD38‐Specific Gallium‐68 Labeled Peptide Radiotracer Enables Pharmacodynamic Monitoring in Multiple Myeloma with PET” (Advanced Science, 2024).
Like-named read-outs stand apart in the source and are kept apart here.

Experiments:
[1] = Ex vivo biodistribution in mice with MM1S tumor xenografts; settings: NSG, mouse; for tissue uptake at 1 h / tissue to tissue ratio at 1 h: 60 min p.i.; for tissue uptake at 1.5 h: 90 min p.i.; for tissue uptake at 2 h: 120 min p.i.; for tissue uptake at 5 min: 5 min p.i.; for tissue uptake at 0.5 h: 30 min p.i.
Protocol: (§1) Animal studies were performed under Johns Hopkins University Animal Care and Use Committee (ACUC‐approved protocol (Principal investigator: Sridhar Nimmagadda, Ph.D. and Protocol number M021M175). Male and female NSG mice (5‐6 weeks old) were used to establish xenografts by administering 3 million cells (50% Corning Matrigel) subcutaneously to form various tumor models within 3–4 weeks. Imaging or biodistribution studies (n = 3–5) were conducted on mice with tumor volumes of 100–200 mm^3. Disseminated tumor models were developed by injecting 4–5 million cells in saline intravenously for MOLP8 and MM1S‐Luc models (n = 4–5). Luciferase expressing MM1S cell line (MM1S‐Luc) was used to monitor cancer cell dissemination in the body. Tumor establishment was confirmed by injecting D‐Luciferin intraperitoneally (150 mg kg^−1) and imaged mice after 10 min in IVIS bioluminescence imaging system. Bone marrow tumors were ready for imaging after 25–30 d of implantation.
(§2) Mice with 100–200 mm^3 tumor volume were used for ex vivo biodistribution studies. For radiotracer pharmacokinetics studies, mice with MOLP8 tumor xenografts received ≈80 µCi (2.96 MBq) [^68Ga]Ga‐AJ206 and were sacrificed at pre‐determined time points (5, 30, 60 and 120 min). Similarly, for dosimetry study, mice with MM1S tumor xenografts received ≈80 µCi (2.96 MBq) of [^68Ga]Ga‐AJ206 and were sacrificed at pre‐determined time points (5, 30, 60, 90 and 120 min). All other mice were injected with ≈50µCi (1.85 MBq) [^68Ga]Ga‐AJ206 and were sacrificed at 60 min. The selected tissues were collected, weighed, counted, and their %ID g^−1 values calculated for biodistribution analysis. The tissues included blood, muscle, tumor, thymus, heart, lung, liver, pancreas, stomach, small intestine, large intestine, spleen, adrenals, kidney, bladder, femur, and brain.

[2] = Ex vivo biodistribution in mice with U266 tumor xenografts; settings: both sexes, NSG, mouse, 60 min p.i., U266 xenograft mice; for tissue uptake at 1 h: 50 µCi; for tissue to tissue ratio at 1 h: 50 uCi, total radioactivity
Protocol: as §1, §2

[3] = both sexes, muscle, 80 µCi, MM1S xenograft mice, read-out: uptake in muscle
[4] = both sexes, pancreas, 80 µCi, total radioactivity, MM1S xenograft mice, read-out: uptake in pancreas
[5] = both sexes, small intestine (with contents), 80 µCi, MM1S xenograft mice, read-out: uptake in small intestine (with contents)
[6] = both sexes, spleen, 80 µCi, total radioactivity, MM1S xenograft mice, read-out: uptake in spleen
[7] = both sexes, stomach (with contents), 80 µCi, MM1S xenograft mice, read-out: uptake in stomach (with contents)
[8] = both sexes, thymus, 80 µCi, total radioactivity, MM1S xenograft mice, read-out: uptake in thymus
[9] = both sexes, tumor, 80 µCi, total radioactivity, MM1S xenograft mice, read-out: uptake in tumor
[10] = female, ovary, 80 µCi, MM1S xenograft mice, read-out: uptake in ovary

CC[C@H](C)[C@@H]1NC(=O)[C@@H]2CCCN2C(=O)[C@H](Cc2ccccc2)NC(=O)[C@H](CC(=O)O)NC(=O)[C@H](C)NC(=O)[C@@H]2CSCc3cc(cc(c3)CSC[C@H](NC(=O)[C@H](C)NC(=O)CCOCCOCCOCCNC(=O)CN3CCN(CC(=O)O)CCN(CC(=O)O)CC3)C(=O)N[C@@H](C(C)C)C(=O)N3CCC[C@H]3C(=O)N2)CSC[C@@H](C(N)=O)NC(=O)[C@H](Cc2ccc(O)cc2)NC(=O)[C@H](Cc2c[nH]c3ccccc23)NC1=O [[^68Ga]Ga‐AJ206, metal not drawn] showed a tissue uptake at 1 h [1, 3] of 0.13 ± 0.02 %ID/g, a tissue uptake at 1.5 h [1, 3] of 0.18 ± 0.04 %ID/g and a tissue uptake at 2 h ([1]; both sexes, muscle, 80 µCi, total radioactivity, MM1S xenograft mice, read-out: uptake in muscle) of 0.09 ± 0.02 %ID/g. For the same compound, the tissue uptake at 1 h ([1]; both sexes, pancreas, 2 mg/kg, MM1S xenograft mice with blocking dose (2 mg kg^−1 AJ206), read-out: uptake in pancreas) was 0.64 ± 0.39 %ID/g, the tissue uptake at 5 min [1, 4] was 3.55 ± 0.34 %ID/g and the tissue uptake at 0.5 h [1, 4] was 0.79 ± 0.14 %ID/g. It also gave a tissue uptake at 1 h [1, 4] of 0.19 ± 0.03 %ID/g, a tissue uptake at 1.5 h [1, 4] of 0.26 ± 0.06 %ID/g and a tissue uptake at 2 h [1, 4] of 0.17 ± 0.05 %ID/g. It also gave a tissue uptake at 5 min [1, 5] of 5 ± 0.7 %ID/g, a tissue uptake at 0.5 h [1, 5] of 0.95 ± 0.1 %ID/g and a tissue uptake at 1 h [1, 5] of 0.2 ± 0.1 %ID/g. For the same compound, the tissue uptake at 1.5 h [1, 5] was 0.41 ± 0.08 %ID/g, the tissue uptake at 2 h [1, 5] was 0.52 ± 0.21 %ID/g and the tissue uptake at 1 h ([1]; both sexes, small intestine, 2 mg/kg, MM1S xenograft mice with blocking dose (2 mg kg^−1 AJ206), read-out: uptake in small intestine) was 0.87 ± 0.5 %ID/g. The tissue uptake at 1 h ([1]; both sexes, spleen, 2 mg/kg, MM1S xenograft mice with blocking dose (2 mg kg^−1 AJ206), read-out: uptake in spleen) was 0.9 ± 0.45 %ID/g, the tissue uptake at 5 min [1, 6] was 6.41 ± 1.3 %ID/g and the tissue uptake at 0.5 h [1, 6] was 1.21 ± 0.15 %ID/g. For the same compound, the tissue uptake at 1 h [1, 6] was 0.41 ± 0.05 %ID/g, the tissue uptake at 1.5 h [1, 6] was 0.43 ± 0.07 %ID/g and the tissue uptake at 2 h [1, 6] was 0.28 ± 0.05 %ID/g. For the same compound, the tissue uptake at 5 min [1, 7] was 1.65 ± 0.19 %ID/g, the tissue uptake at 0.5 h [1, 7] was 0.54 ± 0.19 %ID/g and the tissue uptake at 1 h [1, 7] was 0.32 ± 0.21 %ID/g. The tissue uptake at 1.5 h [1, 7] was 0.82 ± 0.36 %ID/g, the tissue uptake at 2 h [1, 7] was 0.47 ± 0.3 %ID/g and the tissue uptake at 1 h ([1]; both sexes, stomach, 2 mg/kg, MM1S xenograft mice with blocking dose (2 mg kg^−1 AJ206), read-out: uptake in stomach) was 1.01 ± 0.56 %ID/g. The tissue uptake at 5 min [1, 8] was 16.5 ± 5.34 %ID/g, the tissue uptake at 0.5 h [1, 8] was 2.67 ± 0.83 %ID/g and the tissue uptake at 1 h [1, 8] was 0.69 ± 0.19 %ID/g. It also gave a tissue uptake at 1.5 h [1, 8] of 0.84 ± 0.18 %ID/g, a tissue uptake at 2 h [1, 8] of 0.33 ± 0.1 %ID/g and a tissue uptake at 1 h ([1]; both sexes, tumor, 2 mg/kg, MM1S xenograft mice with blocking dose (2 mg kg^−1 AJ206), read-out: uptake in tumor) of 1.37 ± 0.22 %ID/g. The tissue uptake at 5 min [1, 9] was 3.09 ± 0.16 %ID/g, the tissue uptake at 0.5 h [1, 9] was 4.15 ± 0.53 %ID/g and the tissue uptake at 1.5 h [1, 9] was 1.6 ± 0.46 %ID/g. It also gave a tissue uptake at 2 h [1, 9] of 1.3 ± 0.4 %ID/g, a tissue uptake at 1 h ([1]; both sexes, tumor, MM1S xenograft mice, read-out: uptake in tumor) of 2.48 ± 0.17 %ID/g and a tissue to tissue ratio at 1 h ([1]; both sexes, tumor/blood, total radioactivity, MM1S xenograft mice with blocking dose (2 mg kg^−1 AJ206), read-out: Tumor/Blood ratio) of 1.08 ± 0.4. For the same compound, the tissue to tissue ratio at 1 h ([1]; both sexes, tumor/blood, total radioactivity, MM1S xenograft mice, read-out: Tumor/Blood ratio) was 2.9 ± 0.65, the tissue to tissue ratio at 1 h ([1]; both sexes, tumor/muscle, total radioactivity, MM1S xenograft mice with blocking dose (2 mg kg^−1 AJ206), read-out: Tumor/Muscle ratio) was 8.31 ± 2.41 and the tissue to tissue ratio at 1 h ([1]; both sexes, tumor/muscle, total radioactivity, MM1S xenograft mice, read-out: Tumor/Muscle ratio) was 21.2 ± 3.4. For the same compound, the tissue uptake at 5 min [1, 10] was 4.11 ± 1.4 %ID/g, the tissue uptake at 0.5 h [1, 10] was 1.48 ± 0.32 %ID/g and the tissue uptake at 1 h [1, 10] was 0.2 ± 0.06 %ID/g. It also gave a tissue uptake at 1.5 h [1, 10] of 0.32 ± 0.14 %ID/g, a tissue uptake at 2 h [1, 10] of 0.45 ± 0.15 %ID/g and a tissue uptake at 1 h ([2]; blood, read-out: uptake in blood) of 0.32 ± 0.06 %ID/g. For the same compound, the tissue uptake at 1 h ([2]; femur, read-out: uptake in femur) was 0.13 ± 0.02 %ID/g, the tissue uptake at 1 h ([2]; heart, read-out: uptake in heart) was 0.15 ± 0.02 %ID/g and the tissue uptake at 1 h ([2]; kidney, read-out: uptake in kidney) was 21.5 ± 2.68 %ID/g. It also gave a tissue uptake at 1 h ([2]; liver, read-out: uptake in liver) of 0.78 ± 0.06 %ID/g, a tissue uptake at 1 h ([2]; lung, read-out: uptake in lung) of 0.42 ± 0.04 %ID/g and a tissue uptake at 1 h ([2]; muscle, read-out: uptake in muscle) of 0.08 ± 0.01 %ID/g. It also gave a tissue uptake at 1 h ([2]; small intestine, read-out: uptake in small intestine) of 0.16 ± 0.01 %ID/g, a tissue uptake at 1 h ([2]; spleen, read-out: uptake in spleen) of 0.24 ± 0.01 %ID/g and a tissue uptake at 1 h ([2]; stomach, read-out: uptake in stomach) of 0.39 ± 0.3 %ID/g. The tissue uptake at 1 h ([2]; tumor, read-out: uptake in tumor) was 0.25 ± 0.03 %ID/g, the tissue to tissue ratio at 1 h ([2]; tumor/blood, read-out: Tumor/Blood ratio) was 0.83 ± 0.09 and the tissue to tissue ratio at 1 h ([2]; tumor/muscle, read-out: Tumor/Muscle ratio) was 3.43 ± 0.28.
